US20210330611A1, “THERAPY FOR NEUROLOGICAL DISEASES/DISORDERS” (priority 2020, published 2021)
Counter-ions that a name gives are not always drawn. Like-named read-outs stand apart in the source and are kept apart here.

Assays:
[1] = test system: primary rat microglia; test: Cell toxicity (dead cells, size <150 μm2) in LPS assay; conditions: primary microglia HTS, LPS stimulation
[2] = test system: fibrin-induced microglia activation; test: Image-based assay of fibrin-induced microglia activation (HTS and dose response); format: cell-based, rat; conditions: for inhibition at 10 µM: read-out: Fibrin % inhibition
[3] = test system: LPS-induced microglia activation; test: Image-based assay of LPS-induced microglia activation (HTS and dose response); format: cell-based, rat; conditions: for inhibition at 10 µM: 48 h, read-out: LPS % inhibition
[4] = test system: primary rat microglia; test: Cell toxicity (dead cells, size <150 μm2) in coated fibrin (cFib) assay; conditions: primary microglia HTS, fibrin stimulation;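 also: share of dead cells sized under 150 µm2 at 10 µM in fibrin-stimulated microglia HTS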
[5] = test system: fibrin- and LPS-induced microglia activation; test: cells; format: cell-based, rat
[6] = Rattus norvegicus, Microglia, primary microglia HTS, fibrin stimulation, activation = cell size >800 μm2
[7] = Rattus norvegicus, Microglia, primary microglia HTS, LPS stimulation, activation = cell size >800 μm2
[8] = quadrant by fibrin and LPS inhibition in HTS of 1907 compounds
[9] = primary microglia HTS, LPS stimulation, activation = cell size >800 μm2
[10] = decreased size (<150 μm^2) as marker of toxicity
[11] = Rattus norvegicus, Microglia, primary microglia HTS, fibrin stimulation, increased cell size (>800 μm^2) as marker of activation
[12] = Rattus norvegicus, Microglia, primary microglia HTS, LPS stimulation, increased cell size (>800 μm^2) as marker of activation

Cc1ccc(S(=O)(=O)NC(=O)NN2CC3CCCC3C2)cc1 (stereo not shown) [Gliclazide]
LPS % cell toxicity ([1]; toxicity = cell size <150 μm2): 0%
inhibition at 10 µM [2, 6]: 1%
inhibition at 10 µM [3, 7]: 20%
Fibrin % cell toxicity ([4]; toxicity = cell size <150 μm2): 1%
Quadrant (FIG. 5b) [5, 8]: Q4

O=C1O[C@H](CO)[C@@H](O)[C@H](O)[C@H]1O [Gluconolactone]
LPS % cell toxicity ([1]; toxicity = cell size <150 μm2): 0%
inhibition at 10 µM [2, 6]: -1%
inhibition at 10 µM [3, 7]: 17%
Fibrin % cell toxicity ([4]; toxicity = cell size <150 μm2): 0%
Quadrant (FIG. 5b) [5, 8]: Q4

Cl.N[C@H]1C(O)O[C@H](CO)[C@@H](O)[C@@H]1O (stereo partly shown) [Glucosamine Hydrochloride]
LPS % cell toxicity ([1]; toxicity = cell size <150 μm2): 0%
inhibition at 10 µM [2, 6]: -2%
inhibition at 10 µM [3, 7]: 19%
Fibrin % cell toxicity ([4]; toxicity = cell size <150 μm2): 1%
Quadrant (FIG. 5b) [5, 8]: Q4

COc1ccccc1O [Guaiacol]
LPS % cell toxicity ([1]; toxicity = cell size <150 μm2): 0%
inhibition at 10 µM [2, 6]: -51%
inhibition at 10 µM [3, 7]: 11%
Fibrin % cell toxicity ([4]; toxicity = cell size <150 μm2): 0%
Quadrant (FIG. 5b) [5, 8]: Q4

COc1ccccc1OCC(O)CO (stereo not shown) [Guaifenesin]
LPS % cell toxicity ([1]; toxicity = cell size <150 μm2): 0%
inhibition at 10 µM [2, 6]: -15%
inhibition at 10 µM [3, 7]: 11%
Fibrin % cell toxicity ([4]; toxicity = cell size <150 μm2): 0%
Quadrant (FIG. 5b) [5, 8]: Q4

N=C(N)N/N=C/c1c(Cl)cccc1Cl [Guanabenz Acetate]
LPS % cell toxicity ([1]; toxicity = cell size <150 μm2): 0%
Fibrin % inhibition ([2]; primary microglia HTS, fibrin stimulation, activation = cell size >800 μm2): −46%
LPS % inhibition [3, 9]: −2%
Fibrin % cell toxicity ([4]; toxicity = cell size <150 μm2): 0%
Quadrant (FIG. 5b) [5, 8]: Q4

N=C(N)N/N=C/c1c(Cl)cccc1Cl [Guanabenz]
LPS % cell toxicity ([1]; toxicity = cell size <150 μm2): 0%
inhibition at 10 µM [2, 6]: -46%
LPS % inhibition [3, 9]: −18%
Fibrin % cell toxicity ([4]; toxicity = cell size <150 μm2): 1%
Quadrant (FIG. 5b) [5, 8]: Q4

N=C(N)NCC1COC2(CCCCC2)O1 (stereo not shown) [Guanadrel]
LPS % cell toxicity ([1]; toxicity = cell size <150 μm2): 0%
inhibition at 10 µM [2, 6]: -1%
inhibition at 10 µM [3, 7]: 5%
Fibrin % cell toxicity ([4]; toxicity = cell size <150 μm2): 1%
Quadrant (FIG. 5b) [5, 8]: Q4

N=C(N)N [Guanidine]
LPS % cell toxicity ([1]; toxicity = cell size <150 μm2): 0%
inhibition at 10 µM [2, 6]: -32%
inhibition at 10 µM [3, 7]: -1%
Fibrin % cell toxicity ([4]; toxicity = cell size <150 μm2): 0%
Quadrant (FIG. 5b) [5, 8]: Q4

O=C(O)c1ccc(S(=O)(=O)N(Cl)Cl)cc1 [Halazone]
LPS % cell toxicity ([1]; toxicity = cell size <150 μm2): 0%
inhibition at 10 µM [2, 6]: -13%
inhibition at 10 µM [3, 7]: 19%
Fibrin % cell toxicity ([4]; toxicity = cell size <150 μm2): 0%
Quadrant (FIG. 5b) [5, 8]: Q4

CC1(C)O[C@@H]2C[C@H]3[C@@H]4CCC5=CC(=O)CC[C@]5(C)[C@@]4(F)[C@@H](O)C[C@]3(C)[C@]2(C(=O)CCl)O1 [Halcinonide]
LPS % cell toxicity [1, 10]: 2%
inhibition at 10 µM [2, 11]: 103%
inhibition at 10 µM [3, 12]: 95%
Fibrin % cell toxicity [4, 10]: 8%
Quadrant (FIG. 5b) [5, 8]: Q2

Clc1cc(Cl)c(OCC#CI)cc1Cl [Haloprogin]
LPS % cell toxicity [1, 10]: 70%
inhibition at 10 µM [2, 11]: 78%
inhibition at 10 µM [3, 12]: 106%
Fibrin % cell toxicity [4, 10]: 42%
Quadrant (FIG. 5b) [5, 8]: Q2

CC(N)CCCC(C)(C)O (stereo not shown) [Heptaminol Hydrochloride]
LPS % cell toxicity ([1]; toxicity = cell size <150 μm2): 0%
inhibition at 10 µM [2, 6]: -19%
inhibition at 10 µM [3, 7]: 13%
Fibrin % cell toxicity ([4]; toxicity = cell size <150 μm2): 1%
Quadrant (FIG. 5b) [5, 8]: Q4

CC1(C)S[C@@H]2[C@H](N3C(=O)[C@@H](c4ccccc4)NC3(C)C)C(=O)N2[C@H]1C(=O)O [Hetacillin Potassium]
LPS % cell toxicity ([1]; toxicity = cell size <150 μm2): 1%
inhibition at 10 µM [2, 6]: -15%
inhibition at 10 µM [3, 7]: 15%
Fibrin % cell toxicity ([4]; toxicity = cell size <150 μm2): 0%
Quadrant (FIG. 5b) [5, 8]: Q4

Oc1c(Cl)cc(Cl)c(Cl)c1Cc1c(O)c(Cl)cc(Cl)c1Cl [Hexachlorophene]
LPS % cell toxicity ([1]; toxicity = cell size <150 μm2): 0%
inhibition at 10 µM ([2]; Rattus norvegicus, Microglia): -19%
inhibition at 10 µM ([3]; Rattus norvegicus, Microglia): 15%
Fibrin % cell toxicity ([4]; toxicity = cell size <150 μm2): 0%
Quadrant (FIG. 5b) [5, 8]: Q4

C[N+](C)(C)CCCCCC[N+](C)(C)C [Hexamethonium]
LPS % cell toxicity [1, 10]: 2%
inhibition at 10 µM [2, 11]: 108%
inhibition at 10 µM [3, 12]: 100%
Fibrin % cell toxicity [4, 10]: 9%
Quadrant (FIG. 5b) [5, 8]: Q2

C1N2CN3CN1CN(C2)C3 [Hexamethylenetetramine]
LPS % cell toxicity ([1]; toxicity = cell size <150 μm2): 0%
inhibition at 10 µM [2, 6]: -9%
inhibition at 10 µM [3, 7]: 20%
Fibrin % cell toxicity ([4]; toxicity = cell size <150 μm2): 1%
Quadrant (FIG. 5b) [5, 8]: Q4

CC[C@H](c1ccc(O)cc1)[C@@H](CC)c1ccc(O)cc1 [Hexestrol]
LPS % cell toxicity ([1]; toxicity = cell size <150 μm2): 0%
inhibition at 10 µM [2, 6]: -29%
inhibition at 10 µM [3, 7]: 7%
Fibrin % cell toxicity ([4]; toxicity = cell size <150 μm2): 1%
Quadrant (FIG. 5b) [5, 8]: Q4

CCCCC(CC)CN1CN(CC(CC)CCCC)CC(C)(N)C1 (stereo not shown) [Hexetidine]
LPS % cell toxicity ([1]; toxicity = cell size <150 μm2): 0%
inhibition at 10 µM [2, 6]: -85%
inhibition at 10 µM [3, 7]: 19%
Fibrin % cell toxicity ([4]; toxicity = cell size <150 μm2): 1%
Quadrant (FIG. 5b) [5, 8]: Q4

CCCCCCc1ccc(O)cc1O [Hexylresorcinol]
LPS % cell toxicity ([1]; toxicity = cell size <150 μm2): 0%
inhibition at 10 µM [2, 6]: -6%
inhibition at 10 µM [3, 7]: 18%
Fibrin % cell toxicity ([4]; toxicity = cell size <150 μm2): 1%
Quadrant (FIG. 5b) [5, 8]: Q4

C[N+]1(C)[C@@H]2CC[C@H]1C[C@@H](OC(=O)C(O)c1ccccc1)C2 (stereo partly shown) [Homatropine Methylbromide]
LPS % cell toxicity ([1]; toxicity = cell size <150 μm2): 0%
inhibition at 10 µM [2, 6]: -18%
inhibition at 10 µM [3, 7]: 12%
Fibrin % cell toxicity ([4]; toxicity = cell size <150 μm2): 1%
Quadrant (FIG. 5b) [5, 8]: Q4

CC[n+]1c(-c2ccccc2)c2cc(N)ccc2c2ccc(N)cc21 [Homidium Bromide]
LPS % cell toxicity [1, 10]: 9%
inhibition at 10 µM [2, 11]: 84%
inhibition at 10 µM [3, 12]: 103%
Fibrin % cell toxicity [4, 10]: 17%
Quadrant (FIG. 5b) [5, 8]: Q2

COC(=O)C[C@](O)(CCCC(C)(C)O)C(=O)O[C@@H]1C(OC)=C[C@]23CCCN2CCc2cc4c(cc2[C@H]13)OCO4 [Homoharringtonie]
LPS % cell toxicity [1, 10]: 67%
Fibrin % inhibition ([2]; primary microglia HTS, fibrin stimulation, increased cell size (>800 μm^2) as marker of activation): 106%
LPS % inhibition ([3]; primary microglia HTS, LPS stimulation, increased cell size (>800 μm^2) as marker of activation): 106%
Fibrin % cell toxicity [4, 10]: 90%
Quadrant (FIG. 5b) [5, 8]: Q2

CN1CCc2cc3c(cc2C1O)OCO3 (stereo not shown) [Hydrastinine Hydrochloride]
LPS % cell toxicity ([1]; toxicity = cell size <150 μm2): 0%
inhibition at 10 µM [2, 6]: 0%
inhibition at 10 µM [3, 7]: 22%
Fibrin % cell toxicity ([4]; toxicity = cell size <150 μm2): 1%
Quadrant (FIG. 5b) [5, 8]: Q4

NS(=O)(=O)c1cc2c(cc1Cl)NCNS2(=O)=O [Hydrochlorothiazide]
LPS % cell toxicity ([1]; toxicity = cell size <150 μm2): 0%
inhibition at 10 µM [2, 6]: -29%
inhibition at 10 µM [3, 7]: 21%
Fibrin % cell toxicity ([4]; toxicity = cell size <150 μm2): 0%
Quadrant (FIG. 5b) [5, 8]: Q4

CC(=O)OCC(=O)[C@@]1(O)CC[C@H]2[C@@H]3CCC4=CC(=O)CC[C@]4(C)[C@H]3[C@@H](O)C[C@@]21C [Hydrocortisone acetate, reference compound]
LPS % cell toxicity [1, 10]: 4%
IC50 ([2]; Rattus norvegicus, Microglia, Table 7, read-out: fib_IC50): 10 nM
inhibition at 10 µM [2, 11]: 112%
inhibition at 10 µM [3, 12]: 89%
IC50 ([3]; Rattus norvegicus, Microglia, Table 7, read-out: LPS_IC50): 17 nM
Fibrin % cell toxicity [4, 10]: 4%
Quadrant (FIG. 5b) ([5]; Table 2, screen at 10 μM): Q2
Activity ([5]; Table 7, fib = fibrin, LPS, tox = toxicity): fib/LPS
Quadrant (FIG. 5b) [5, 8]: Q2

NS(=O)(=O)c1cc2c(cc1C(F)(F)F)NCNS2(=O)=O [Hydroflumethiazide]
LPS % cell toxicity ([1]; toxicity = cell size <150 μm2): 0%
inhibition at 10 µM [2, 6]: -9%
inhibition at 10 µM [3, 7]: 11%
Fibrin % cell toxicity ([4]; toxicity = cell size <150 μm2): 0%
Quadrant (FIG. 5b) [5, 8]: Q4
